The text below walks through data of ChEMBL document CHEMBL3244335 (J Med Chem, 1977).

The nature of data set [1]: Octanol-water partition coefficient, log P of the compound at 37 degC. It counts as physicochemical.
Data set [2] in a line: Ionization constant, pKa of the compound. Format: physicochemical.
Data set [3] can be described thus: Solubility of the compound in water at 37 degC. Format: physicochemical. As to conditions: buffer.
Data set [4] is described as follows: Ionization constant, pKa of the imidazole ring of the compound. Format: physicochemical.
The nature of data set [5]: Octanol-water partition coefficient, log P of the compound at pH 9.2. Format: physicochemical.
Data set [6] is described as follows: Octanol-water partition coefficient, P of the compound at 37 degC.
Data set [7] addresses Histamine H2 receptor (Cavia porcellus) (UniProt P47747). Put plainly: Antagonist at histamine H2 receptor in guinea pig atrium assessed as inhibition of histamine-induced response. As to conditions: Cardiac atrium.
The target of data set [8] is Histamine H2 receptor (Rattus norvegicus) (UniProt P25102). The data set can be described thus: Antagonist at histamine H2 receptor in rat uterus assessed as inhibition of histamine-induced response. It counts as tissue-based.
Histamine H2 receptor (Rattus norvegicus), sequence (P25102 whole entry): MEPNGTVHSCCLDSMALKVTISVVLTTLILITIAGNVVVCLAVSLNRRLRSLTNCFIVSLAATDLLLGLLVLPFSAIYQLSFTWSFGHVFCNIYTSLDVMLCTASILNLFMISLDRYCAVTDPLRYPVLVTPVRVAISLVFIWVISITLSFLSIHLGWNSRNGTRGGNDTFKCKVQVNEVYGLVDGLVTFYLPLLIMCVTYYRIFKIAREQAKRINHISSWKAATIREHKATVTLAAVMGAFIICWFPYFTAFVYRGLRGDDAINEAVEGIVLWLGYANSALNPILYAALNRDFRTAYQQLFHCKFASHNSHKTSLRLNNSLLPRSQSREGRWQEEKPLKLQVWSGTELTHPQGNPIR

Histamine H2 receptor (Cavia porcellus), sequence (P47747 whole entry): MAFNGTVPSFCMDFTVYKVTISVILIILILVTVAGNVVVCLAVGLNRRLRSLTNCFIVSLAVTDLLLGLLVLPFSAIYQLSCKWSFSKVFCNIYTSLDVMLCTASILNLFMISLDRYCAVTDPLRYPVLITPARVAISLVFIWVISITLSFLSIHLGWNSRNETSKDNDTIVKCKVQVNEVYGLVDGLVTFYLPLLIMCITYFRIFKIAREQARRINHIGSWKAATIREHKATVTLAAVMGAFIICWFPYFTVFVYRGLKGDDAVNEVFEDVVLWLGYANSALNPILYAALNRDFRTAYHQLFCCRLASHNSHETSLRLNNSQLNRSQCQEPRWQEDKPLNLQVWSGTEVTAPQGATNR

Consider `N#CNC(=N)N`, for which, in data set [1], the logP (usually a log measure of how a compound divides between an organic and an aqueous phase) was -1.16. The pKa (usually the negative logarithm of the acid dissociation constant) in data set [2] is -0.4.

In data set [3], `C/N=C(\S)NCCSCc1[nH]cnc1C` [METIAMIDE] registered a solubility of 0.32%. This compound also gave a pKa in data set [4] of 6.8. In data set [5] (read-out: logP (converted)), the logP was 0.505.

`NC(N)=S` [THIOUREA]: in data set [2], the pKa is -1.2. Besides, in data set [6], the P was 0.09.

Turning to `CN/C(=N\C#N)NCCSCc1c[nH]cn1`, the Kb (in general, the affinity of an antagonist, worked out from how it opposes an agonist) in data set [7] stood at 1.4 µM; in data set [8], 1.6 µM.

In turn, `CN/C(=N/CCSCc1nc[nH]c1C)NC#N` [CIMETIDINE] registered a solubility in data set [3] of 1.14%. Besides, in data set [5], the logP turned out to be 2.5.

As to `CNC(=S)NCCSCc1c[nH]cn1`, the Kb in data set [7] and in data set [8] was 3.2 µM each time.

Turning to `CN/C(=N\C(N)=O)NCCSCc1nc[nH]c1C`, the Kb in data set [7] stood at 7.1 µM; in data set [8] it was 6.9 µM.

In the case of `CNC(=S)NCCCCc1nc[nH]c1C`, the Kb in data set [7] turned out to be 8.9 µM; in data set [8], 10.7 µM.

Turning to `CN/C(=N\CCSCc1nc[nH]c1C)NC#N`, the Kb in data set [8] was found to be 0.81 µM.

On to `CNC(=S)NCCSCc1[nH]cnc1C`, for which the Kb is 0.92 µM in data set [7] and 0.75 µM in data set [8].

Regarding `CNC(=S)NC`, in data set [1], the logP was -0.237.

`C/N=C(\S)NCCCCc1c[nH]cn1`: the Kb in data set [7] was found to be 7.8 µM; in data set [8], 6.6 µM.

Consider `N=C(N)N` [GUANIDINE], for which the pKa in data set [2] worked out at 13.6.

With `CNC(=O)NCCSCc1[nH]cnc1C`, the figures for the Kb in data set [7] and in data set [8] were 22 µM and 7.1 µM, respectively.

On to `CN/C(=N\C#N)NCCCCc1c[nH]cn1`, for which the Kb was found to be 8.3 µM in data set [7] and 7.1 µM in data set [8].

Turning to `CNC(=NC#N)NC`, the logP in data set [1] was -0.398.

Turning to `CN/C(=N/C#N)NCCCCc1nc[nH]c1C`, the values for the Kb in data set [7] and in data set [8] were 8.1 µM and 4.9 µM, respectively.

Take `CNC(=N)NCCSCc1nc[nH]c1C`: the results for the Kb in data set [7] and in data set [8] were 16 µM and 5.5 µM, respectively.

For the compound `C/N=C(/NCCSCc1[nH]cnc1C)N[N+](=O)[O-]`, the Kb in data set [7] and in data set [8] was 1.4 µM throughout.
